Experiments:
LOLRI [1] = assay: Pre-emergence action against LOLRI, 1280 g/ha; format: in vivo, Lolium rigidum; details: visual scoring after about 3 weeks vs untreated controls, 100% = plants have died, 0% = like control plants
Method in brief: (§1)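 Sandy loam pots, seeds covered with soil; aqueous WP/EC spray on covering soil, 0.5% additive, 600 L/ha. Greenhouse growth, good conditions. Readout: visual % activity at ~3 weeks (0% = like control, 100% = dead).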

ABUTH = assay: Pre-emergence action against ABUTH, 1280 g/ha; format: in vivo, Abutilon theophrasti; details: scored visually after about 3 weeks vs untreated controls (100% = plants have died)
Method in brief: as §1

LOLRI [2] = assay: Pre-emergence action at 320 g/ha against LOLRI; format: in vivo, Lolium rigidum; details: visual scoring after about 3 weeks vs untreated controls
Method in brief: (§2)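 Application: aqueous WP or EC with 0.5% additive on soil covering seeds, 600 l/ha. Read-out: visual percent damage after ~3 weeks in greenhouse, untreated pots as reference.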

VERPE [3] = assay: Pre-emergence action at 320 g/ha against VERPE; format: in vivo, Veronica persica; details: visual scoring after about 3 weeks vs untreated controls
Method in brief: as §2

ALOMY [4] = assay: Post-emergence action against ALOMY, 1.28 kg/ha; format: in vivo, Alopecurus myosuroides; details: dosage 1280 g/ha, visual rating about 3 weeks after treatment vs untreated controls
Method in brief: (§3)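 Greenhouse pot test, sandy loam; weeds sprayed post-emergence at one-leaf stage (2–3 weeks after sowing) with WP or EC formulation plus 0.5% additive, 600 l/ha water. Visual rating after about 3 weeks versus untreated controls, 100% = plants dead, 0% = like control.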

DIGSA [5] = assay: Post-emergence action against DIGSA, 1.28 kg/ha; format: in vivo, Digitaria sanguinalis; details: dosage 1280 g/ha, visual rating about 3 weeks after treatment vs untreated controls
Method in brief: as §3

ECHCG = assay: Post-emergence action against ECHCG, 1.28 kg/ha; format: in vivo, Echinochloa crus-galli; details: dosage 1280 g/ha, visual rating about 3 weeks after treatment vs untreated controls
Method in brief: as §3

LOLRI [6] = assay: Post-emergence action against LOLRI, 1.28 kg/ha; format: in vivo, Lolium rigidum; details: dosage 1280 g/ha, visual rating about 3 weeks after treatment vs untreated controls
Method in brief: as §3

SETVI [7] = assay: Post-emergence action against SETVI, 1.28 kg/ha; format: in vivo, Setaria viridis; details: dosage 1280 g/ha, visual rating about 3 weeks after treatment vs untreated controls
Method in brief: as §3

MATIN = assay: Post-emergence action against MATIN, 1.28 kg/ha; format: in vivo, Tripleurospermum inodorum (Matricaria inodora); details: dosage 1280 g/ha, visual rating about 3 weeks after treatment vs untreated controls (100% = plants died)
Method in brief: as §3

VERPE [8] = assay: Post-emergence action against VERPE, 1.28 kg/ha; format: in vivo, Veronica persica; details: dosage 1280 g/ha, visual rating about 3 weeks after treatment vs untreated controls (100% = plants died)
Method in brief: as §3

ALOMY [9] = assay: Post-emergence action against ALOMY, 320 g/ha; format: in vivo, Alopecurus myosuroides; details: dosage 320 g/ha, visual rating about 3 weeks after treatment vs untreated controls (100% = plants died)
Method in brief: (§4)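 Herbicidal effect is scored by eye about 3 weeks after a foliar spray and expressed as percent activity, with untreated plants as 0% and dead plants as 100%. Treatment is applied at the one-leaf stage of greenhouse-grown, soil-sown plants, at a water rate of 600 l/ha containing 0.5% additive.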

SETVI [10] = assay: Post-emergence action at 320 g/ha against SETVI; format: in vivo, Setaria viridis; details: visual rating about 3 weeks after treatment vs untreated controls
Method in brief: as §4

VIOTR = assay: Post-emergence action at 320 g/ha against VIOTR; format: in vivo, Viola tricolor; details: visual rating about 3 weeks after treatment vs untreated controls
Method in brief: as §4

DIGSA [11] = assay: Post-emergence action at 320 g/ha against DIGSA; format: in vivo, Digitaria sanguinalis; details: dosage 320 g/ha, visual rating about 3 weeks after treatment vs untreated controls (100% = plants died)
Method in brief: as §4

SMILES | Pre-emergence action against LOLRI (LOLRI [1]) [%] | Pre-emergence action against ABUTH (ABUTH) [%] | Pre-emergence action against LOLRI in % (LOLRI [2]) [%] | Pre-emergence action against VERPE in % (VERPE [3]) [%] | Post-emergence action against ALOMY (ALOMY [4]) [%] | Post-emergence action against DIGSA (DIGSA [5]) [%] | Post-emergence action against ECHCG (ECHCG) [%] | Post-emergence action against LOLRI (LOLRI [6]) [%] | Post-emergence action against SETVI (SETVI [7]) [%] | Post-emergence action against MATIN (MATIN) [%] | Post-emergence action against VERPE (VERPE [8]) [%] | Post-emergence action against ALOMY (ALOMY [9]) [%] | Post-emergence action against SETVI in % (SETVI [10]) [%] | Post-emergence action against VIOTR in % (VIOTR) [%] | Post-emergence action at 320 g/ha against DIGSA in % (DIGSA [11]) [%] | also measured
COC(=O)CNC(=O)COc1nn(-c2ccccc2F)c(-c2ccc(F)nc2)c1C(F)(F)F [Example X-007] | 100 | 90 | 100 | 100 | 100 | 100 | 100 | 100 | 100 | 90 | 90 | 100 | 80 | 80 |  | 
COCCOC(=O)COc1nn(-c2ccccc2F)c(-c2ccc(F)nc2)c1Br [VII-052] | 100 | 100 | 100 | 90 | 100 | 100 | 100 |  | 90 | 100 | 100 | 90 |  | 80 | 90 | 
COC(=O)[C@@H](C)Oc1nn(-c2cc(F)ccc2F)c(-c2ccc(F)nc2)c1Br [VII-062] | 100 | 90 | 100 | 100 | 100 | 100 | 100 | 100 |  |  | 100 | 90 |  | 80 | 90 | 
CCOC(=O)C(C)Oc1nn(-c2ccccc2F)c(-c2ccc(F)nc2)c1C(F)(F)F (centres unmarked) [VII-066] | 100 |  | 90 | 100 | 100 | 100 | 100 | 100 | 90 | 90 | 90 | 90 |  | 80 | 90 | 
COC(=O)COc1nn(-c2cc(F)ccc2F)c(-c2ccc(F)nc2)c1Br [VII-089] | 100 |  | 100 | 100 | 100 | 100 | 90 | 100 |  | 90 | 90 | 90 |  |  | 90 | 
O=C(COc1nn(-c2ccccc2F)c(-c2ccc(F)nc2)c1Br)OCC1CCOC1 (centres unmarked) [VII-091] | 100 | 90 | 100 | 100 | 100 | 100 | 100 | 100 | 90 | 90 | 100 | 90 | 80 |  | 90 | 
O=C(COc1nn(-c2ccccc2F)c(-c2ccc(F)nc2)c1Br)OCC1OCCO1 [VII-103] | 100 | 90 | 100 | 100 | 100 | 100 | 100 | 100 | 90 | 90 | 100 | 100 | 80 |  | 90 | 
COC(=O)[C@H](C)Oc1nn(-c2cc(F)ccc2F)c(-c2ccc(F)nc2)c1Br [VII-107] | 90 |  | 80 | 80 | 100 | 100 | 100 |  | 90 | 100 | 100 | 90 | 80 | 80 | 90 | 
COC(=O)[C@@H](C)Oc1nn(-c2cc(F)ccc2F)c(-c2cncc(F)c2)c1Br [VII-132] | 100 | 90 | 100 | 100 | 100 | 100 | 100 |  | 90 | 90 | 90 | 90 |  | 80 | 90 | 
COC(=O)[C@@H](C)Oc1nn(-c2cc(F)ccc2F)c(-c2cncc(F)c2)c1C#N [VII-147] | 100 | 90 | 100 | 100 | 100 | 100 | 100 | 100 | 90 | 100 | 100 | 90 | 80 |  |  | 
CCOC(=O)COc1nn(-c2ccccc2F)c(-c2ccnc(F)c2)c1Br [VIII-003, Ethyl {[4-bromo-1-(2-fluorophenyl)-5-(2-fluoropyridin-4-yl)-1H-pyrazol-3-yl]oxy}acetate] |  |  |  |  |  |  |  | 100 | 100 |  |  | 90 |  |  |  | pest or weed control at 1280 g/ha (LOLRI [1]; Lolium rigidum, 504 h): 90%; pest or weed control at 320 g/ha (LOLRI [2]; Lolium rigidum, 504 h): 90%; pest or weed control at 320 g/ha (VERPE [3]; Veronica persica, 504 h): 90%; pest or weed control at 1280 g/ha (ECHCG; Echinochloa crus-galli, 504 h): 100%; pest or weed control at 1280 g/ha (VERPE [8]; Veronica persica, 504 h): 90%; pest or weed control at 320 g/ha (DIGSA [11]; Digitaria sanguinalis, 504 h): 80%; pest or weed control at 320 g/ha (VIOTR; Viola tricolor, 504 h): 80%
COC(=O)[C@@H](C)Oc1nn(-c2ccccc2F)c(-c2ccnc(F)c2)c1Br [VIII-006] | 100 | 90 | 100 |  | 100 | 90 | 90 | 100 | 90 | 100 | 90 | 100 | 90 |  |  | 

Source: US12180187B2, “1-phenyl-5-azinylpyrazolyl-3-oxyalkyl acids and their use for controlling unwanted plant growth” (BAYER AKTIENGESELLSCHAFT, priority 2019, dated 2024)
